Data taken from PubChem BioAssay (NCI).
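Five compound concentrations were applied to cells in 96-well plates for 48 hours; endpoints were derived by simple linear interpolation of the resulting dose-response curve. The concentration for 50% growth inhibition is given as GI50. TGI marks complete inhibition of growth.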

Tested on: MDA-MB-468 breast
Assay: NCI tumour cell line growth inhibition, 48 h

For `CCOC(=O)C1=CN(C)C=C(C(=O)OCC)C1c1cc(Br)c(OCC)c(OC)c1`, the GI50 was > 100 µM and the TGI was > 100 µM.
With `C=C(C=O)[C@@H]1CC[C@]2(CO)CC[C@]3(C)[C@H](CC[C@@H]4[C@@]5(C)CCCNC(C)(C)[C@@H]5CC[C@]43C)[C@@H]12` the GI50 was 3.77 µM and the TGI was 16.5 µM.
In the case of `Cc1cc(Cl)cc(OCCn2cc(F)cn2)c1-c1nc(N)nc2c1CN(C(=O)NCC(C)(F)F)C2`, the GI50 is reported as 0.0361 µM and the TGI is reported as 3.13 µM.
